From EP3036295B1, “OFFSET PRINTING INKS COMPRISING AN ISOSORBIDE FATTY ACID ESTER SOLVENT” (OLEON NV, priority 2013, dated 2015)

Legend:
[1] = system: bacteria, fungi and yeasts; settings: WO 2013/017257 A1; cited from earlier work
[2] = Surface tension, Du Noüy ring method; format: physicochemical
Description: The surface tension was measured using the Du Noüy ring method (http://www.kruss.de/en/theory/measurements/surface-tension/ring-method.html. The surface or interfacial tension is measured with the help of an optimally wettable ring suspended from a precision balance. A height-adjustable sample carrier is used to bring the liquid to be measured into contact with the probe. A force acts on the balance as soon as the probe touches the surface. If the length of the probe is known (circumference of ring or length of plate) the force measured can be used to calculate the interfacial or surface tension. A further requirement is that the probe must have a very high surface energy. This is why a platinum-iridium alloy is used for the ring and roughened platinum for the plate.
The liquid is raised until contact with the surface is registered. The sample is then lowered again so that the liquid film produced beneath the ring is stretched. As the film is stretched a maximum force is experienced; this is recorded in the measurement. At the maximum the force vector is exactly parallel to the direction of motion; at this moment the contact angle θ is 0°. In practice the distance is first increased until the area of maximum force has been passed through. The sample vessel containing the liquid is then moved back so that the maximum point is passed through a second time. The maximum force is only determined exactly on this return movement and used to calculate the tension. The calculation is made according to the following equation: σ = (Fmax −FV)/(L⋅cosθ) [formula] (σ =surface or interfacial tension; Fmax=maximum force; FV=weight of volume of liquid lifted; L=wetted length, θ=contact angle) The contact angle θ decreases as the extension increases and has the value 0° at the point of maximum force, this means that the term cos θ has the value 1.

[3] = Kauri butanol value (solvent power), ASTM D1133; format: physicochemical; settings: Table 2, comparison with conventional solvents
Text: The "Kb value" is a measure of solvent power, and may be determined using the standardized test ASTM D1133. A high Kb value is an indication that the isosorbide ester is more capable in dissolving a wide range of resins of varying nature, and in higher concentrations, as compared to existing solvents used in offset printing inks. This is important as offset inks usually contain besides one or more pigments, approximately 40-65 wt. % of resin binders, for example rosin resins, maleic resins, hydrocarbon resins and alkyd resins, to ensure formation of a polymer film which binds the pigments or dyes together and provides resistance properties. Such resin binders are usually absent in inkjet printing inks. The offset printing ink may further comprise approximately 3 - 6 wt. % of additives, for example waxes, siccative agents and/or inhibitors. Without wanting to be bound by this theory, the applicants believe that this advantageous combination of properties, i.e. high wetting power of the pigments and high Kb value associated with good dissolution properties for the resin component present in the offset ink, must be attributed to the structure of the isosorbide moiety in the ester molecule. […]
In addition the inventors have observed that the Kb value may further be tuned by varying the nature of the carboxylic acid of the isosorbide ester and/or by varying the degree of esterification, in order to provide an ester with good solvent properties or an ester which functions much more as a diluent for the other components present in a formulation. […] Kauri resin is readily soluble in 1-butanol but is not soluble in many other solvents. […] Better solvents, for example toluene, may be added up to larger quantities before the solution becomes cloudy, and thus have a high Kauri butanol value. Weaker solvents like hexane may only be added in smaller quantities and will have a small Kauri butanol value. The Kauri butanol value (Kb value) is usually determined according to ASTM D1133 standardized test. […]

| Molecule | antimicrobial activity [1] | Surface tension Du Noüy ring method [2] [mN/m] | Kauri butanol ASTM D 1133 [3] |
| --- | --- | --- | --- |
| isosorbide monocaprylate | responsible for the antimicrobial activity observed | – | – |
| O[C@@H]1CO[C@H]2[C@@H]1OC[C@@H]2O [isosorbide, Isosorbide] | isosorbide itself, nor the dicaprylate, exhibit any such activity | – | – |
| C=C(C)[C@H]1CC=C(C)CC1 [D-limonene] | – | 25 | 67 |
| isosorbide dicaprylate | isosorbide itself, nor the dicaprylate, exhibit any such activity | – | – |
| Cc1ccccc1 [Toluene] | – | 29 | 105 |
| Xylene | – | 29 | 90 |
